Source: PMC11062903, “Discovery of potent inhibitors of α-synuclein aggregation using structure-based iterative learning” (Nature Chemical Biology, 2024)
Entries after “also recorded” stand apart in the source; their conditions may differ. Read-outs that look alike come from different tables or passages of the source. Values belong to the molecule of their own block, whether it stands above or below them.

What was measured:
[1] = molecular target: T1, αS aggregation (surface-catalyzed secondary nucleation) (Homo sapiens, UniProt P37840); experiment: light seeded αS aggregation chemical kinetics assay (ThT), secondary nucleation; format: biochemical
T1 construct: made in house; host or cells: E. coli BL21 (DE3)
Method: Secondary nucleation is enabled by adding a small amount of preformed fibrils to a monomeric mixture. Aggregation was tracked using the amyloid binding dye, thioflavin T (ThT).
αS was injected into a Superdex 75 10/300 GL column (GE Healthcare) at a flow rate of 0.5 ml min^−1 and eluted in 20 mM sodium phosphate buffer (pH 4.8) supplemented with 1 mM EDTA. The obtained monomer was diluted in buffer to a desired concentration and supplemented with 50 µM ThT and preformed αS fibril seeds. The molecules (or DMSO alone) were then added at the desired concentration to a final DMSO concentration of 1% (v/v). […] The assay was then initiated by placing the microplate at 37 °C under quiescent conditions in a plate reader (FLUOstar Omega, BMG Labtech). The ThT fluorescence was measured through the bottom of the plate with a 440 nm excitation filter and a 480 nm emission filter.
In the presence of low concentrations of seeds (approximately nanomolar), the fibril mass fraction, M(t), over time was described using a generalized logistic function to the normalized aggregation data[9],[70] M(t)/mtot=1−1/1+a/ce^κt^c where mtot denotes the total concentration of αS monomers. The parameters a and c are defined as a=λ^2/2κ^2 c=2/n2(n2+1). […]

αS fibrils = molecular target: T2, αS fibrils (Homo sapiens, UniProt P37840); experiment: SPR binding to immobilized αS fibrils; details: 1:1 kinetic binding model; for kd / kon: error s.e.m.; for kon: read-out: ka
T2 construct: made in house; host or cells: E. coli BL21 (DE3)
Method: All work was carried out using Biacore T200 at 25 °C. CM5 chips were activated by flowing 0.01 M N-hydroxysuccinimide, 0.4 M […] at a flow rate of 10 µl min^−1 for 7 min over two lanes. Preformed αS or Aβ42 fibrils (derived from the endpoints of low seeded aggregation reactions) at a concentration of 1 µM in sodium acetate (10 mM, pH 4.0) were injected onto a single lane in 60 s bursts at 5 µl min^−1 until a response of 2,000 units was reached. […] Different small molecule concentrations were then flowed over both lanes in a pyramidal arrangement in duplicate with blank subtraction (association time 3 min, dissociation time 10 min). The running buffer was sodium phosphate (20 mM, 1 mM EDTA, variable pH) with 1% DMSO. Fitting was carried out on Biacore T200 Evaluation Software, version 3.2, using a 1:1 binding model with the refractive index set to a constant value of 0 response units.

Aβ42 fibrils = molecular target: T3, Aβ42 fibrils (Homo sapiens, UniProt P05067); experiment: SPR binding to immobilized Aβ42 fibrils; details: pH 8
T3 construct: The recombinant Aβ42 peptide ([…] […] […] […] IA), here called Aβ42; made in house; host or cells: Escherichia coli BL21 Gold (DE3)
T3 sequence (P05067 671-713): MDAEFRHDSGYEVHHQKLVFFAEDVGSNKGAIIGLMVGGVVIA
Method: (§1) Solutions of monomeric Aβ42 were prepared by dissolving the lyophilized Aβ42 peptide in 6 M guanidinium hydrocholoride (GuHCl). Monomeric forms were purified from potential oligomeric species and salt using a Superdex 75 10/300 GL column (GE Healthcare) at a flow rate of 0.5 ml min^−1, and were eluted in 20 mM sodium phosphate buffer, pH 8 supplemented with 200 µM EDTA and 0.02% NaN3. The center of the peak was collected and the peptide concentration was determined from the absorbance of the integrated peak area using ε280 = 1,490 l mol^−1 cm^−1. The obtained monomer was diluted with buffer to the desired concentration and supplemented with 20 μM ThT from a 2 mM stock. Each sample was then pipetted into multiple wells of a 96-well half-area, low-binding, clear-bottom and polyethylene glycol-coated plate (Corning 3881), 80 µl per well, in the absence and the presence of different molar-equivalents of small molecules (1% DMSO). Assays were initiated by placing the 96-well plate at 37 °C under quiescent conditions in a plate reader (Fluostar Omega, Fluostar Optima or Fluostar Galaxy, BMGLabtech). The ThT fluorescence was measured through the bottom of the plate using a 440 nm excitation filter and a 480 nm emission filter. Fibrils were extracted directly from wells and used on the day for SPR experiments.
All work was carried out using Biacore T200 at 25 °C. […]

[2] = molecular target: T4, Aβ42 secondary nucleation (Homo sapiens, UniProt P05067); experiment: seeded Aβ42 aggregation kinetics (ThT); format: biochemical; details: 2 μM Aβ42, 40 nM seed, pH 8
T4 construct: The recombinant Aβ42 peptide ([…] […] […] […] IA), here called Aβ42; made in house; host or cells: Escherichia coli BL21 Gold (DE3)
T4 sequence (P05067 671-713): as above
Method: as §1

[3] = molecular target: T1, αS aggregation (surface-catalyzed secondary nucleation); parameters: method as in PMID 36374974; details: cited from earlier work

SMILES: O=C1NN(c2ccc(F)cc2)C(=O)/C1=C/c1ccc(-c2ccc(Cl)c(C(=O)O)c2)o1 [I4.05]
IC50 ([1]; 1/t1/2 fitted to a Hill slope, 10 µM αS, 25 nM seeds, pH 4.8, 37 °C, read-out: KIC50 (concentration at which t1/2 is increased by 50% with respect to the control)): 520 nM
Kd (αS fibrils; pH 4.8): 68 nM
kd (αS fibrils; pH 4.8): 1.315 ± 0.003 × 10^−2 s^−1
kon (αS fibrils; pH 4.8): 194000 ± 7e+07 M⁻¹ s⁻¹
Kd (αS fibrils; pH 8): 13 nM
kd (αS fibrils; pH 8): 0.781 ± 0.002 × 10^−2 s^−1
kon (αS fibrils; pH 8): 588000 ± 2.4e+08 M⁻¹ s⁻¹
binding to Aβ42 fibrils (Aβ42 fibrils): unable to effectively inhibit Aβ42 secondary nucleation or bind to Aβ42 fibrils; also recorded: nor does it bind effectively to Aβ42 fibrils
effect on seeded aggregation of Aβ42 [2]: unable to effectively inhibit Aβ42 secondary nucleation; also recorded: no effect

IC50 ([1]; extrapolated from Hill fit of 1/t1/2, read-out: extrapolated KIC50): 18200 nM
SMILES: O=C1NN(c2ccccc2)C(=O)C1=Cc1coc2ccccc2c1=O [molecule 69]
activity in aggregation assays (docking set) [3]: active

SMILES: Cc1c(OCc2nnn[nH]2)ccc2c1oc(=O)c1ccccc12 [molecule 48]
activity in aggregation assays (docking set) [3]: active
